Experimental findings from patent publication US9023789B2, “Amylin analogs and pharmaceutical compositions thereof” (Novo Nordisk A/S, priority 2012, dated 2015) are described below.

The experiment has as its target T1, human calcitonin (a) receptor in BHK570 cells (Homo sapiens, UniProt P30988).
T1 construct: expressed in transfected cells
T1 sequence (P30988 25-474): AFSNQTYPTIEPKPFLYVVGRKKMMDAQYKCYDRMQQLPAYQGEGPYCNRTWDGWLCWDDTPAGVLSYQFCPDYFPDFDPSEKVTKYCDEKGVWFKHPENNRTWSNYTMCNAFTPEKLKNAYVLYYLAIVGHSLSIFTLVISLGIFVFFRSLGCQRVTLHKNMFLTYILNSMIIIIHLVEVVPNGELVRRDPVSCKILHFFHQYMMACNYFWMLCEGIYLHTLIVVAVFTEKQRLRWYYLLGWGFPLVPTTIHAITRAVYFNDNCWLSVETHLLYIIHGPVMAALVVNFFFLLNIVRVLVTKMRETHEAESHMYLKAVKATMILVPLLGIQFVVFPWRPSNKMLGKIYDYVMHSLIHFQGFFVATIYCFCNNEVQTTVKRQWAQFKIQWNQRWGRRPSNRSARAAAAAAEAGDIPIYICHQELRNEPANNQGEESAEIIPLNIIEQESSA
The experiment in a line: ASSAY (II)a functional assay, human calcitonin receptor (CRE luciferase). In kind it is cell-based. As to conditions: read-out: hCTR funct. EC50. The method, boiled down:
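Read-out: CRE-driven luciferase luminescence, single photon counting, after 30 min at room temperature with LucLite. BHK cells expressed calcitonin receptor alone or with RAMP-3 (amylin 3(a)). Cells were stimulated 3 h at 37° C in DMEM, 10% FBS, 10 mM Hepes, pH 7.4.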

One may read the EC50 as the concentration at which the effect is half-maximal.

Numbered stars: 1 amine (or outer) side, 2 acyl side, 3 side chain; on linkers, the order of the positions; unused ones are H or OH. Bridge positions count the residues as written; N and C are the ends. Side chains are listed from the residue outwards. Peptide text beside a SMILES is read from it. * marks the point of attachment. C20 diacid = O=C(O)CCCCCCCCCCCCCCCCCCC(=O)*; γGlu = O=C(O)[C@H](CCC(=O)[*:2])N[*:1]; AEEA = NCCOCCOCC(=O)O

`CC[C@H](C)[C@H](NC(=O)[C@H](C)NC(=O)CNC(=O)[C@H](Cc1ccccc1)NC(=O)[C@H](CC(N)=O)NC(=O)[C@@H]1CCCN1C(=O)[C@H](CO)NC(=O)[C@H](CO)NC(=O)[C@H](Cc1c[nH]cn1)NC(=O)[C@H](CCCNC(=N)N)NC(=O)[C@H](CC(C)C)NC(=O)[C@H](Cc1ccccc1)NC(=O)[C@H](C)NC(=O)[C@H](C)NC(=O)[C@H](CC(C)C)NC(=O)[C@H](CCCNC(=N)N)NC(=O)[C@H](CCC(N)=O)NC(=O)[C@@H](NC(=O)[C@H](C)NC(=O)[C@@H]1CSSC[C@H](NC(=O)[C@@H](N)CCCCNC(=O)COCCOCCNC(=O)CC[C@H](NC(=O)CCCCCCCCCCCCCCCCCCC(=O)O)C(=O)O)C(=O)N[C@@H](CC(N)=O)C(=O)N[C@@H]([C@@H](C)O)C(=O)N[C@@H](C)C(=O)N[C@@H]([C@@H](C)O)C(=O)N1)[C@@H](C)O)C(=O)N1CCC[C@H]1C(=O)N[C@@H](CO)C(=O)N[C@@H](CO)C(=O)N[C@H](C(=O)N1CCC[C@H]1C(=O)N[C@H](C(=O)NCC(=O)N[C@@H](CO)C(=O)N[C@@H](CC(N)=O)C(=O)N[C@H](C(=O)N[C@@H](Cc1ccc(O)cc1)C(N)=O)[C@@H](C)O)C(C)C)[C@@H](C)O` [Example 72] (H-K([AEEA-γGlu-C20 diacid])CNTATCATQRLAAFLRHSSPNFGAIPSSTPVGSNTY-NH2; disulfide 2-7 (inferred); N-terminus assumed): the EC50 was determined as 4.76 nM.
